In one test the test system is Cell membrane. In words: Induction of inner membrane permeabilization in Escherichia coli at 0.5 to 1 times MIC measured for 135 mins by absorbance based analysis.
In test [1] the test system is Staphylococcus aureus. In words: Induction of morphological changes in Staphylococcus aureus assessed as cell aggregation adhesion at 2 times MIC measured after 120 mins by SEM analysis. It counts as functional, organism-based.
Test [2] has as its system Staphylococcus aureus. In words: Induction of cell membrane disruption in Staphylococcus aureus assessed as PI uptake at 2 to 4 times MIC measured after 120 mins by PI staining based flow cytometry analysis. Format: functional, organism-based.
The subject of test [3] is Staphylococcus aureus. Put plainly: Antibacterial activity against methicillin resistant Staphylococcus aureus infected in male BALB/c mouse model of skin wound infection assessed as reduction in wound area at 2 mg/kg, ip measured after 10 days post infection relative to control. On the set-up: scale not given: the % may be the effect or the level left. It counts as functional. Particulars: time 10 day.

The test system of test [4] is Staphylococcus aureus. In words: Antibacterial activity against methicillin resistant Staphylococcus aureus infected in male BALB/c mouse model of skin wound infection assessed as healthy development of sebaceous glands at 2 mg/kg, ip measured after 10 days post infection. It counts as functional, organism-based. To be noted: time 10.0 day.
In test [5] the test system is Staphylococcus aureus. Put plainly: Antibacterial activity against methicillin resistant Staphylococcus aureus infected in male BALB/c mouse model of skin wound infection assessed as appearance of intact structure of stratum corneum at 2 mg/kg, ip measured after 10 days post infection. Format: functional, organism-based. To be noted: time 10.0 day.
The subject of test [6] is Staphylococcus aureus. Put plainly: Bactericidal activity against Staphylococcus aureus 25923 assessed as eradication of bacteria at 2 times MIC measured after 6 hrs by time-kill assay. Format: functional, organism-based.
Test [7] deals with Staphylococcus aureus. Put plainly: Antibacterial activity against methicillin resistant Staphylococcus aureus infected in male BALB/c mouse model of skin wound infection assessed as healthy development of hair follicles at 2 mg/kg, ip measured after 10 days post infection. It counts as functional, organism-based. Particulars: time 10.0 day.

The source made the active and inactive calls. The calls are words filed in the database; no cut-off is given here.

As to `CC(C)(C)CC(C)(C)c1ccc(OCCO)cc1`, in the test on Cell membrane, the outcome was Active.

As for `CN[C@H](CC(C)C)C(=O)N[C@H]1C(=O)N[C@@H](CC(N)=O)C(=O)N[C@H]2C(=O)N[C@H]3C(=O)N[C@H](C(=O)N[C@H](C(=O)O)c4cc(O)cc(O)c4-c4cc3ccc4O)[C@H](O)c3ccc(c(Cl)c3)Oc3cc2cc(c3O[C@@H]2O[C@H](CO)[C@@H](O)[C@H](O)[C@H]2O[C@H]2C[C@](C)(N)[C@H](O)[C@H](C)O2)Oc2ccc(cc2Cl)[C@H]1O` [VANCOMYCIN], the result in the test with Staphylococcus aureus [1], with Staphylococcus aureus [2] and in the test with Staphylococcus aureus [6] was inactive. For the same molecule, in the test with Staphylococcus aureus [3], the Activity is listed as below 20%. The outcome in the test on Staphylococcus aureus [4], in the test with Staphylococcus aureus [5] and with Staphylococcus aureus [7] was Active.

The record behind these values is ChEMBL document CHEMBL6114980, “Single or double lipid-modified ultra-short antimicrobial peptides for treating infections caused by resistant bacteria” (Eur J Med Chem, 2025).
